Measurements as given in ChEMBL document CHEMBL1201862, “PubChem BioAssay data set” (2004).
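Dose response: 5 concentrations. Exposure: 48 h. Format: 96-well plates. Endpoint: linear interpolation; highest concentration if not reached. The concentration for 50% growth inhibition is given as GI50.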 Active and inactive are the calls of the source. Cut-off read from the data, not from the text of the source: active = GI50 up to about 1.1 µM and inactive = higher.

Legend:
Experiment in all cases: inhibition of tumour cell growth, NCI panel, 48 h
[1] = system: SNB-19
[2] = system: NCI-H226
[3] = system: SNB-78
[4] = system: KM-20L2
[5] = system: SNB-75
[6] = system: OVCAR-4
[7] = system: NCI-H522
[8] = system: RPMI-8226
[9] = system: DMS-273
[10] = system: NCI-H460
[11] = system: CCRF-CEM
[12] = system: LOX IMVI
[13] = system: HL-60
[14] = system: 786-0
[15] = system: SK-MEL-28
[16] = system: XF498
[17] = system: DLD-1
[18] = system: K562
[19] = system: U-251
[20] = system: RXF 393
[21] = system: NCI-H23
[22] = system: LXFL 529
[23] = system: HCC 2998
[24] = system: HCT-116
[25] = system: HOP-62
[26] = system: SN12C
[27] = system: M14
[28] = system: MOLT-4
[29] = system: SF-539
[30] = system: HOP-18
[31] = system: UACC-62
[32] = system: EKVX
[33] = system: OVCAR-5
[34] = system: Malme-3M
[35] = system: HOP-92
[36] = system: UO-31
[37] = system: HCT-15
[38] = system: SK-OV-3
[39] = system: COLO 205
[40] = system: SF-268
[41] = system: IGROV-1
[42] = system: CAKI-1
[43] = system: UACC-257
[44] = system: ACHN
[45] = system: SF-295
[46] = system: SK-MEL-5
[47] = system: OVCAR-8
[48] = system: OVCAR-3
[49] = system: SW-620
[50] = system: KM12
[51] = system: M19-MEL
[52] = system: DMS-114
[53] = system: HT-29
[54] = system: TK-10
[55] = system: A498
[56] = system: SR
[57] = system: SK-MEL-2
[58] = system: A549
[59] = system: MDA-N
[60] = system: NCI/ADR-RES
[61] = system: DU-145
[62] = system: MDA-MB-231
[63] = system: MDA-MB-435
[64] = system: Hs-578T
[65] = system: PC-3
[66] = system: T47D
[67] = system: BT-549

## O=c1oc(-c2ccccc2)cn1-c1ccccc1
[1]
  GI50: > 100 µM (inactive)
[2]
  GI50: > 100 µM (inactive)
[3]
  GI50: > 100 µM (inactive)
[4]
  GI50: 94.8 µM (inactive)
[5]
  GI50: > 100 µM (inactive)
[6]
  GI50: > 10 µM (inactive)
[7]
  GI50: 70.8 µM (inactive)
[8]
  GI50: > 100 µM (inactive)
[9]
  GI50: > 100 µM (inactive)
[10]
  GI50: > 100 µM (inactive)
[11]
  GI50: > 100 µM (inactive)
[12]
  GI50: 94.8 µM (inactive)
[13]
  GI50: > 100 µM (inactive)
[14]
  GI50: > 100 µM (inactive)
[15]
  GI50: > 100 µM (inactive)
[16]
  GI50: > 100 µM (inactive)
[17]
  GI50: > 100 µM (inactive)
[18]
  GI50: > 100 µM (inactive)
[19]
  GI50: > 100 µM (inactive)
[20]
  GI50: > 100 µM (inactive)
[21]
  GI50: > 100 µM (inactive)
[22]
  GI50: > 100 µM (inactive)
[23]
  GI50: > 100 µM (inactive)
[24]
  GI50: > 100 µM (inactive)
[25]
  GI50: > 100 µM (inactive)
[26]
  GI50: > 100 µM (inactive)
[27]
  GI50: > 100 µM (inactive)
[28]
  GI50: > 100 µM (inactive)
[29]
  GI50: 88.7 µM (inactive)
[30]
  GI50: 95.3 µM (inactive)

## CO/C(=N\N=Cc1ccccc1)c1ccncc1
[1]
  GI50: > 100 µM (inactive)
[2]
  GI50: 12.6 µM (inactive)
[31]
  GI50: > 100 µM (inactive)
[32]
  GI50: > 100 µM (inactive)
[33]
  GI50: > 100 µM (inactive)
[3]
  GI50: > 100 µM (inactive)
[4]
  GI50: > 100 µM (inactive)
[5]
  GI50: 31.3 µM (inactive)
[6]
  GI50: > 100 µM (inactive)
[34]
  GI50: > 100 µM (inactive)
[35]
  GI50: > 100 µM (inactive)
[36]
  GI50: 47.2 µM (inactive)
[7]
  GI50: 68.9 µM (inactive)
[8]
  GI50: > 100 µM (inactive)
[9]
  GI50: > 100 µM (inactive)
[10]
  GI50: > 100 µM (inactive)
[11]
  GI50: > 100 µM (inactive)
[37]
  GI50: > 100 µM
[13]
  GI50: > 100 µM (inactive)
[38]
  GI50: > 100 µM (inactive)
[15]
  GI50: > 100 µM (inactive)
[39]
  GI50: > 100 µM (inactive)
[16]
  GI50: 47.5 µM (inactive)
[17]
  GI50: > 100 µM (inactive)
[40]
  GI50: > 100 µM (inactive)
[41]
  GI50: > 100 µM (inactive)
[42]
  GI50: > 100 µM (inactive)
[43]
  GI50: > 100 µM (inactive)
[44]
  GI50: > 100 µM (inactive)
[45]
  GI50: > 100 µM (inactive)
[46]
  GI50: > 100 µM (inactive)
[47]
  GI50: > 100 µM (inactive)
[48]
  GI50: > 100 µM (inactive)
[49]
  GI50: > 100 µM (inactive)
[18]
  GI50: > 100 µM (inactive)
[19]
  GI50: > 100 µM (inactive)
[50]
  GI50: > 100 µM (inactive)
[21]
  GI50: > 100 µM (inactive)
[51]
  GI50: > 100 µM (inactive)
[22]
  GI50: > 100 µM (inactive)
[23]
  GI50: > 100 µM (inactive)
[52]
  GI50: > 100 µM (inactive)
[24]
  GI50: > 100 µM (inactive)
[53]
  GI50: > 100 µM (inactive)
[54]
  GI50: > 100 µM (inactive)
[55]
  GI50: > 100 µM (inactive)
[56]
  GI50: > 100 µM (inactive)
[57]
  GI50: > 100 µM (inactive)
[25]
  GI50: > 100 µM (inactive)
[26]
  GI50: > 100 µM (inactive)
[58]
  GI50: > 100 µM (inactive)
[27]
  GI50: > 100 µM (inactive)
[28]
  GI50: > 100 µM (inactive)
[29]
  GI50: > 100 µM (inactive)

## O=C(N/C(=C\c1ccc(Oc2ccc(Cl)c(Cl)c2)cc1)c1nc2ccccc2[nH]1)c1ccccc1
[1]
  GI50: 15.6 µM (inactive)
[31]
  GI50: 13.7 µM (inactive)
[32]
  GI50: 22 µM (inactive)
[33]
  GI50: 22.4 µM (inactive)
[3]
  GI50: 20.4 µM (inactive)
[4]
  GI50: 17.7 µM (inactive)
[6]
  GI50: 16.6 µM (inactive)
[34]
  GI50: 20.9 µM (inactive)
[35]
  GI50: 10.4 µM (inactive)
[36]
  GI50: 14.1 µM (inactive)
[7]
  GI50: 15.9 µM (inactive)
[9]
  GI50: 21.2 µM (inactive)
[11]
  GI50: 17.1 µM (inactive)
[37]
  GI50: 23.2 µM
[14]
  GI50: 17.3 µM (inactive)
[38]
  GI50: 26.2 µM (inactive)
[15]
  GI50: 18.4 µM (inactive)
[39]
  GI50: 21.9 µM (inactive)
[16]
  GI50: 16.8 µM (inactive)
[17]
  GI50: 17.7 µM (inactive)
[40]
  GI50: 18.1 µM (inactive)
[41]
  GI50: > 10 µM (inactive)
[42]
  GI50: 21 µM (inactive)
[44]
  GI50: 19.7 µM (inactive)
[45]
  GI50: 15.1 µM (inactive)
[46]
  GI50: 16.1 µM (inactive)
[47]
  GI50: 14.6 µM (inactive)
[48]
  GI50: 17.3 µM (inactive)
[49]
  GI50: 16.6 µM (inactive)
[18]
  GI50: 8.91 µM (inactive)
[19]
  GI50: 14.1 µM (inactive)
[50]
  GI50: 15.3 µM (inactive)
[20]
  GI50: 13.9 µM (inactive)
[21]
  GI50: 13.3 µM (inactive)
[51]
  GI50: 27.6 µM (inactive)
[22]
  GI50: 12.5 µM (inactive)
[23]
  GI50: 16.4 µM (inactive)
[53]
  GI50: 15.5 µM (inactive)
[54]
  GI50: 26.1 µM (inactive)
[56]
  GI50: 25.6 µM (inactive)
[57]
  GI50: 19.2 µM (inactive)
[26]
  GI50: 18.4 µM (inactive)
[58]
  GI50: 17.9 µM (inactive)
[27]
  GI50: 19.5 µM (inactive)
[28]
  GI50: 18.7 µM (inactive)
[29]
  GI50: 18 µM (inactive)

## O=C1C=CC(=O)c2c1cc1ccccc1c2O
[1]
  GI50: 19.3 µM (inactive)
[2]
  GI50: 20.1 µM (inactive)
[31]
  GI50: 6.32 µM (inactive)
[32]
  GI50: 11.5 µM (inactive)
[33]
  GI50: 18.4 µM (inactive)
[3]
  GI50: 3.78 µM (inactive)
[4]
  GI50: 19 µM (inactive)
[5]
  GI50: 18.1 µM (inactive)
[6]
  GI50: 2.33 µM (inactive)
[59]
  GI50: 5.26 µM (inactive)
[34]
  GI50: 6.18 µM (inactive)
[35]
  GI50: 1.8 µM (inactive)
[36]
  GI50: 3.15 µM (inactive)
[7]
  GI50: 1.9 µM (inactive)
[60]
  GI50: 6.18 µM (inactive)
[8]
  GI50: 2.43 µM (inactive)
[61]
  GI50: 14.6 µM (inactive)
[9]
  GI50: 12.7 µM (inactive)
[10]
  GI50: 19.1 µM (inactive)
[11]
  GI50: 0.391 µM (active)
[37]
  GI50: 4.8 µM
[12]
  GI50: 2.72 µM (inactive)
[13]
  GI50: 0.628 µM (active)
[14]
  GI50: 7.67 µM (inactive)
[38]
  GI50: 18.4 µM (inactive)
[62]
  GI50: 2.04 µM (inactive)
[15]
  GI50: 9.25 µM (inactive)
[39]
  GI50: 2.4 µM (inactive)
[16]
  GI50: 3.01 µM (inactive)
[17]
  GI50: 1.66 µM (inactive)
[40]
  GI50: 8.24 µM (inactive)
[41]
  GI50: 5.28 µM (inactive)
[42]
  GI50: 4.21 µM (inactive)
[63]
  GI50: 6.37 µM (inactive)
[43]
  GI50: 3.18 µM (inactive)
[64]
  GI50: 8.22 µM (inactive)
[44]
  GI50: 2.84 µM (inactive)
[45]
  GI50: 17.1 µM (inactive)
[46]
  GI50: 12.1 µM (inactive)
[47]
  GI50: 2.58 µM (inactive)
[65]
  GI50: 6.03 µM (inactive)
[48]
  GI50: 2.12 µM (inactive)
[66]
  GI50: 1.61 µM (inactive)
[49]
  GI50: 1.86 µM (inactive)
[18]
  GI50: 0.767 µM (active)
[19]
  GI50: 14 µM (inactive)
[50]
  GI50: 13.2 µM (inactive)
[20]
  GI50: 2.11 µM (inactive)
[21]
  GI50: 13 µM (inactive)
[51]
  GI50: 4.01 µM (inactive)
[22]
  GI50: 1.9 µM (inactive)
[23]
  GI50: 17.7 µM (inactive)
[24]
  GI50: 1.85 µM (inactive)
[53]
  GI50: 7.53 µM (inactive)
[54]
  GI50: 4.24 µM (inactive)
[55]
  GI50: 13.5 µM (inactive)
[56]
  GI50: 0.428 µM (active)
[57]
  GI50: 14.4 µM (inactive)
[67]
  GI50: 9.38 µM (inactive)
[25]
  GI50: 16.7 µM (inactive)
[26]
  GI50: 12.3 µM (inactive)
[58]
  GI50: 16.7 µM (inactive)
[27]
  GI50: 10.7 µM (inactive)
[28]
  GI50: 0.387 µM (active)
[29]
  GI50: 11.6 µM (inactive)
[30]
  GI50: 18.2 µM (inactive)
